Measurements: US20250034106A1, “3-CYCLOAMINO-INDOLE COMPOUNDS AS SEROTONERGIC AGENTS USEFUL FOR THE TREATMENT OF DISORDERS RELATED THERETO” (Mindset Pharma Inc., priority 2021, published 2025)
Where two headings read alike, the source gives them in different places.

Assays:
[1] = target: human 5-HT2A (h5-HT2A) receptor (Homo sapiens (Human), UniProt P28223); experiment: FLIPR assay, human 5-HT2A, agonist mode; type: cell-based; settings: FLIPR calcium assay
Method: 4. […] Vortexed vigorously for 1-2 minutes.
8. 3×compound in assay buffer was prepared: a. Reference compounds were diluted to required concentration with DMSO. […] Serial dilutions were performed; c.
ii. Calculated the percentage activation by using following equation:
% Activation=(RFU compound−RFU low control)/(RFU top concentration of reference agonist−RFU low control)×100%

human 5-HT2A [2] = target: T1, human 5-HT2A (Homo sapiens (Human), UniProt P28223); experiment: Human 5-HT2A radioligand binding assay ([3H]-ketanserin); settings: competition with [3H]-ketanserin; read-out: h5-HT2A IC50
[3] = DMT and 5-MeO-DMT consumed parenterally; cited from earlier work
[4] = cited from earlier work
human 5-HT2A [5] = target: T1, human 5-HT2A; settings: cited from earlier work

SMILES | EC50 [1] [µM] | IC50 (human 5-HT2A [2]) [µM] | duration of action / effects [3] | also measured
[2H]c1[nH]c2c([2H])c([2H])c([2H])c([2H])c2c1C1CC([2H])([2H])N(C)C1([2H])[2H] (stereo not drawn) [Compound 1-44, 3-(1-Methylpyrrolidin-3-yl-2,2,5,5-d4)-1H-indole-2,4,5,6,7-d5] | > 10 | < 0.5 | – | –
[2H]c1[nH]c2c([2H])c([2H])c([2H])c([2H])c2c1C1CCN(C)C1 (stereo not drawn) [Compound 1-32, 3-(1-Methylpyrrolidin-3-yl)-1H-indole-2,4,5,6,7-d5] | > 10 | < 0.5 | – | –
[2H]C1([2H])CC(c2c[nH]c3ccc(OC)cc23)C([2H])([2H])N1C (stereo not drawn) [Compound 1-54, 5-Methoxy-3-(1-methylpyrrolidin-3-yl-2,2,5,5-d4)-1H-indole] | – | 0.5 to 10 | – | –
[2H]c1[nH]c2c([2H])c([2H])c([2H])c([2H])c2c1C1CCNCC1 [Compound 1-1, 3-(piperidin-4-yl)-1H-indole-2,4,5,6,7-d5] | 1 to 10 | 0.5 to 10 | – | –
[2H]C([2H])([2H])N1CCC(c2c[nH]c3ccccc23)C1 (stereo not drawn) [Compound 1-48] | – | 0.5 to 10 | – | –
CN(C)CCc1c[nH]c2cccc(OP(=O)(O)O)c12 [psilocybin, 4-phosphoryloxy-N,N-dimethyltrypatmine] | – | – | 5 to 8 h | abstinence rate ([4]; 12 months follow-up): 67%; abstinence rate ([4]; six months follow-up): 80%
CN(C)CCc1c[nH]c2ccccc12 [DMT, N,N-dimethyltryptamine] | – | < 0.5 | less than 1 h | binding affinity 5-HT2A (human 5-HT2A [5]): 0.237 µM
COc1ccc2[nH]cc(CCN(C)C)c2c1 [Compound 5-MeO-DMT, 5-methoxy-N,N-dimethyltryptamine] | – | – | less than 1 h | –
